Columns and labels:
Cannabinoid receptor 1 = Cannabinoid receptor 1 (Homo sapiens, UniProt P21554); test: Inverse agonist activity at human CB1 receptor transfected in HEK293 cells assessed as increase of forskolin-induced cAMP production incubated for 30 mins followed by d2 labeled cAMP addition measured after 60 mins by HTRF assay; format: functional, cell-based
Cannabinoid receptor 2 = Cannabinoid receptor 2 (Homo sapiens, UniProt P34972); test: Inverse agonist activity at human CB2 receptor transfected in HEK293 cells assessed as increase of forskolin-induced cAMP production incubated for 30 mins followed by d2 labeled cAMP addition measured after 60 mins by HTRF assay; format: functional, cell-based
[1] = Plasma concentration in C57BL/6J mouse at 20 mg/kg, po measured at 2 hrs; format: ADME, organism-based
[2] = Drug uptake in C57BL/6J mouse brain at 20 mg/kg, po measured at 2 hrs; format: ADME, organism-based; settings: for concentration at 2 h: C57BL/6J, brain, read-out: Drug uptake; for Drug uptake: in vivo, 2 h
[3] = Plasma concentration in C57BL/6J mouse at 20 mg/kg, po measured at 4 hrs; format: ADME, organism-based
[4] = Drug uptake in C57BL/6J mouse brain at 20 mg/kg, po measured at 4 hrs; format: ADME, organism-based; settings: for Drug uptake: in vivo, 4 h
[5] = Ratio of drug level in brain to plasma in C57BL/6J mouse at 20 mg/kg, po measured at 4 hrs; format: ADME, organism-based; settings: read-out: BPR
[6] = Plasma concentration in C57BL/6J mouse at 30 mg/kg, po measured at 4 hrs; format: ADME, organism-based
[7] = Drug uptake in C57BL/6J mouse brain at 30 mg/kg, po measured at 4 hrs; format: ADME, organism-based; settings: read-out: Drug uptake
[8] = Ratio of drug level in brain to plasma in C57BL/6J mouse at 20 mg/kg, po measured at 2 hrs; format: ADME, organism-based; settings: read-out: BPR
[9] = Ratio of drug level in brain in C57BL/6J mouse at 20 mg/kg, po measured at 4 hrs to drug level in plasma in C57BL/6J mouse at 20 mg/kg, po measured at 2 hrs; format: ADME, organism-based; settings: read-out: BPR

Sequence of Cannabinoid receptor 2 (P34972 whole entry): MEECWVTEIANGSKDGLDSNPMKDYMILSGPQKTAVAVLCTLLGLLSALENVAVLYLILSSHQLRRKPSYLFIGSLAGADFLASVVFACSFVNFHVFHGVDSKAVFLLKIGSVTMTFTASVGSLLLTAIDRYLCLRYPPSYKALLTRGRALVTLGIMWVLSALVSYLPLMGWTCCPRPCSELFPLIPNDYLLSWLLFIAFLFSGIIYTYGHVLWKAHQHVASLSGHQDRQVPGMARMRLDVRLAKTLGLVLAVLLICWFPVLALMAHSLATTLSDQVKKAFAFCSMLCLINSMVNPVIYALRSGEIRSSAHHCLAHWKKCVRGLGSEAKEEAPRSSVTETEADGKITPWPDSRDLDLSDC
Sequence of Cannabinoid receptor 1 (P21554 whole entry): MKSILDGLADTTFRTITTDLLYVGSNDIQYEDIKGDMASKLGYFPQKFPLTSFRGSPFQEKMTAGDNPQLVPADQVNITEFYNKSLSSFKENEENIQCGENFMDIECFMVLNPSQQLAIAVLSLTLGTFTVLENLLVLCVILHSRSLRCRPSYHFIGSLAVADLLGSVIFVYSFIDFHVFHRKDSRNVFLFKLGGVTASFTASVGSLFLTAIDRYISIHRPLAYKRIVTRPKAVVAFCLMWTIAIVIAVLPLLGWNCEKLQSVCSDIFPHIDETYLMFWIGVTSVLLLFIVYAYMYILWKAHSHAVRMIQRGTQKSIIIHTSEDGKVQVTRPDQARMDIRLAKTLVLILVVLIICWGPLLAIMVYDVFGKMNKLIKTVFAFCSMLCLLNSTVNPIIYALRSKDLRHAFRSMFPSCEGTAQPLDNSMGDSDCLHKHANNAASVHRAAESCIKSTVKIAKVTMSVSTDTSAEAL

| Compound | EC50 (Cannabinoid receptor 1) [nM] | EC50 (Cannabinoid receptor 2) [µM] | concentration at 2 h [1] [nM] | concentration at 2 h [2] [ng/mL] | concentration at 4 h [3] [nM] | Drug uptake [4] [nmol/g] | Kp at 4 h [5] | concentration at 4 h [6] [nM] | concentration at 4 h [7] [ng/mL] | Drug uptake [2] [nmol/g] | Kp at 2 h [8] | Kp [9] | concentration at 4 h ([4]; C57BL/6J, brain, read-out: Drug uptake) [ng/mL] |
| --- | --- | --- | --- | --- | --- | --- | --- | --- | --- | --- | --- | --- | --- |
| COc1ccc(/C=C2\CN(C(=O)Cn3ccnc3)Cc3c(C(=O)N[C@H](C)c4ccccc4)nn(-c4ccc(Cl)cc4Cl)c32)cc1 | 5 | 0.37 | 580 | < 5 | – | – | – | – | – | – | – | – | – |
| COc1ccc(/C=C2\CN(C(=O)CN)Cc3c(C(=O)N[C@H](C)c4ccccc4)nn(-c4ccc(Cl)cc4Cl)c32)cc1 | 24 | > 10 | – | – | 1530 | 0.07 | 0.04 | – | – | – | – | – | – |
| C[C@@H](NC(=O)c1nn(-c2ccc(Cl)cc2)c2c1CN(C(=O)CNS(C)(=O)=O)C/C2=C\c1ccc(F)cc1)c1ccccn1 | 30 | > 10 | – | – | 1720 | 0.09 | 0.05 | – | – | – | – | – | – |
| C[C@@H](NC(=O)c1nn(-c2ccc(Cl)c(Cl)c2)c2c1CN(C(=O)Cn1cncn1)C/C2=C\c1ccc(Cl)cc1)c1ccccn1 | 6 | 7.85 | – | – | 4600 | 0.35 | 0.08 | – | – | – | – | – | – |
| C[C@@H](NC(=O)c1nn(-c2ccc(Cl)cc2)c2c1CN(C(=O)c1nc[nH]n1)C/C2=C\c1ccc(Cl)cc1)c1ccccn1 | 28 | > 10 | 2380 | – | – | – | – | – | – | 0.1 | 0.04 | – | – |
| C[C@@H](NC(=O)c1nn(-c2ccc(Cl)cc2Cl)c2c1CN(C(=O)CCC(N)=O)C/C2=C\c1ccc(F)cc1)c1ccccn1 | 20 | > 10 | – | – | 4250 | 0.12 | 0.03 | – | – | – | – | – | – |
| C[C@@H](NC(=O)c1nn(-c2ccc(Cl)cc2Cl)c2c1CN(C(=O)c1nc[nH]n1)C/C2=C\c1ccc(F)cc1)c1ccccc1 | 15 | 1.31 | 4480 | – | – | – | – | – | – | 0.25 | 0.06 | – | – |
| C[C@@H](NC(=O)c1nn(-c2ccc(Cl)c(Cl)c2)c2c1CN(C(=O)Cn1cnnn1)C/C2=C\c1ccc(F)cc1)c1ccccn1 | 7 | 3.66 | – | – | 2820 | 0.15 | 0.05 | – | – | – | – | – | – |
| C[C@@H](NC(=O)c1nn(-c2ccc(Cl)cc2)c2c1CN(C(=O)c1nc[nH]n1)C/C2=C\c1ccc(F)cc1)c1ccccc1 | 12 | > 10 | 1320 | – | – | – | – | – | – | 0.09 | 0.07 | – | – |
| C[C@@H](NC(=O)c1nn(-c2ccc(Cl)cc2Cl)c2c1CN(C(=O)[C@@H](O)CO)C/C2=C\c1ccc(Cl)cc1)c1ccccn1 | 22 | 5.55 | – | – | 2410 | 0.18 | 0.08 | – | – | – | – | – | – |

Next, values leading:

| EC50 (Cannabinoid receptor 1) [nM] | EC50 (Cannabinoid receptor 2) [µM] | concentration at 2 h [1] [nM] | concentration at 2 h [2] [ng/mL] | concentration at 4 h [3] [nM] | Drug uptake [4] [nmol/g] | Kp at 4 h [5] | concentration at 4 h [6] [nM] | concentration at 4 h [7] [ng/mL] | Drug uptake [2] [nmol/g] | Kp at 2 h [8] | Kp [9] | concentration at 4 h ([4]; C57BL/6J, brain, read-out: Drug uptake) [ng/mL] | Compound |
| --- | --- | --- | --- | --- | --- | --- | --- | --- | --- | --- | --- | --- | --- |
| 8 | 1.45 | – | – | 2090 | 0.08 | 0.04 | – | – | – | – | – | – | COc1ccc(/C=C2\CN(C(=O)CS(N)(=O)=O)Cc3c(C(=O)N[C@H](C)c4ccccn4)nn(-c4ccc(Cl)cc4Cl)c32)cc1 |
| 9 | > 10 | – | – | – | – | – | 2290 | < 5 | – | – | – | – | C[C@@H](NC(=O)c1nn(-c2ccc(Cl)cc2Cl)c2c1CN(C(=O)CC(N)=O)C/C2=C\c1ccc(F)cc1)c1ccccn1 |
| 32 | 4.66 | 1720 | < 5 | – | – | – | – | – | – | – | – | – | COc1ccc(/C=C2\CN(C(=O)c3cc[nH]n3)Cc3c(C(=O)N[C@H](C)c4ccccc4)nn(-c4ccc(Cl)cc4Cl)c32)cc1 |
| 17 | > 10 | 9780 | – | – | – | – | – | – | 0.47 | 0.05 | – | – | C[C@@H](NC(=O)c1nn(-c2ccc(Cl)cc2)c2c1CN(C(=O)c1nc[nH]n1)C/C2=C\c1ccc(Cl)cc1)c1ccccc1 |
| 8 | 3.24 | 9190 | – | – | 0.43 | – | – | – | – | – | 0.05 | – | C[C@@H](NC(=O)c1nn(-c2ccc(Cl)cc2Cl)c2c1CN(C(=O)Cn1cnnn1)C/C2=C\c1ccc(F)cc1)c1ccccc1 |
| 18 | 2.91 | – | – | 2770 | 0.17 | 0.06 | – | – | – | – | – | – | C[C@@H](NC(=O)c1nn(-c2ccc(Cl)cc2Cl)c2c1CN(C(=O)[C@@H](O)CO)C/C2=C\c1ccc(Cl)cc1)c1ccccc1 |
| 6 | 0.65 | – | – | 1360 | 0.05 | 0.04 | – | – | – | – | – | – | COc1ccc(/C=C2\CN(C(=O)CCS(N)(=O)=O)Cc3c(C(=O)N[C@H](C)c4ccccn4)nn(-c4ccc(Cl)cc4Cl)c32)cc1 |
| 15 | 1.76 | 1480 | – | – | – | – | – | – | 0.05 | 0.03 | – | – | COc1ccc(/C=C2\CN(C(=O)c3nc[nH]n3)Cc3c(C(=O)N[C@H](C)c4ccccc4)nn(-c4ccc(Cl)cc4Cl)c32)cc1 |
| 6 | 1.13 | 2960 | – | – | – | – | – | – | 0.07 | 0.02 | – | – | COc1ccc(/C=C2\CN(C(=O)Cn3cnnn3)Cc3c(C(=O)N[C@H](C)c4ccccc4)nn(-c4ccc(Cl)cc4Cl)c32)cc1 |
| 6 | 8.61 | – | – | 2280 | 0.07 | 0.03 | – | – | – | – | – | – | C[C@@H](NC(=O)c1nn(-c2ccc(Cl)cc2Cl)c2c1CN(C(=O)Cn1cnnn1)C/C2=C\c1ccc(F)cc1)c1ccccn1 |
| 4 | 1.27 | 30 | < 5 | – | – | – | – | – | – | – | – | – | COc1ccc(/C=C2\CN(C(=O)Cn3ccnn3)Cc3c(C(=O)N[C@H](C)c4ccccc4)nn(-c4ccc(Cl)cc4Cl)c32)cc1 |
| 11 | 1.94 | – | – | 90 | – | – | – | – | – | – | – | < 5 | COc1ccc(/C=C2\CN(C(=O)CC(=O)O)Cc3c(C(=O)N[C@H](C)c4ccccn4)nn(-c4ccc(Cl)cc4Cl)c32)cc1 |
| 17 | > 10 | – | – | 3320 | 0.17 | 0.05 | – | – | – | – | – | – | C[C@@H](NC(=O)c1nn(-c2ccc(Cl)cc2Cl)c2c1CN(C(=O)CNS(C)(=O)=O)C/C2=C\c1ccc(Cl)cc1)c1ccccn1 |

From ChEMBL document CHEMBL3862001, “Tetrahydropyrazolo[4,3-c]pyridine derivatives as potent and peripherally selective cannabinoid-1 (CB1) receptor inverse agonists” (Bioorg Med Chem Lett, 2016)
